Source: PMC7024302, “Ultrashort Cationic Lipopeptides–Effect of N-Terminal Amino Acid and Fatty Acid Type on Antimicrobial Activity and Hemolysis” (Molecules, 2020)
Values after ≈ are worked out from the molar mass of the structure shown. Residues, ends and D or L forms follow the SMILES beside them.

Legend:
C. albicans ATCC 10231 = format: cell-based, Candida albicans; conditions: ATCC 10231, 24 h, pH 7
Text: (§1) The Acinetobacter baumannii ATCC BAA-1605, Candida albicans ATCC 10231, Enterococcus faecium ATCC 700221, Klebsiella aerogenes ATCC 13048 (previously known as Enterobacter aerogenes), Klebsiella pneumoniae ATCC 700603, Pseudomonas aeruginosa ATCC 9027, Staphylococcus aureus ATCC 25923 and MRSA ATCC 33591, were acquired from the American Type Culture Collection (ATCC). Before running the tests, beads with cryo-protected microorganisms were transferred into fresh MHB (BioMaxima, Lublin, Poland) for bacteria or RPMI-1640 for fungi and incubated for 24 h at 37 °C. Then, the culture was seeded on the Mueller-Hinton agar (MHA) plates (BioMaxima, Lublin, Poland) for bacteria or Sabouraud dextrose agar (SDA) plates (BioMaxima, Lublin, Poland) for fungi and incubated as just mentioned. Cell densities for all assays were adjusted spectrophotometrically (Multiskan™ GO Microplate Spectrophotometer, Thermo Fisher Scientific, Vantaa, Finland) at 600 nm for bacteria and at 530 nm for fungi.
(§2) The MICs were determined by broth microdilution method according to the Clinical and Laboratory Standard Institute guidelines. For this purpose initial inoculums of bacteria (5 × 10^5 CFU/mL) in MHB (BioMaxima, Lublin, Poland) and fungi (2 × 10^3 CFU/mL) in RPMI-1640 with 2% D-glucose (Merck, Darmstadt, Germany) prepared with MOPS (pH 7.0 ± 0.1 at 25 °C; Merck, Darmstadt, Germany) were exposed to the ranging concentration of lipopeptides (0.5–256 µg/mL) and incubated at 37 °C for 18 h and 24 h respectively. The experiments were conducted on 96-well microtiter polystyrene plates (Kartell, Italy). The MIC was taken as the lowest peptide concentration at which a noticeable growth of microorganisms was inhibited. All experiments were conducted in triplicate.

[1] = system: S. aureus ATCC 33591 (MRSA); format: cell-based, Staphylococcus aureus; conditions: ATCC 33591, 18 h
Text: as §1, §2

S. aureus ATCC 25923 = format: cell-based, Staphylococcus aureus; conditions: ATCC 25923, 18 h
Text: as §1, §2

[2] = system: A. baumannii ATCC BAA-1605; format: cell-based, Acinetobacter baumannii; conditions: ATCC BAA-1605, 18 h
Text: as §1, §2

E. faecium ATCC 700221 = format: cell-based, Enterococcus faecium; conditions: ATCC 700221, 18 h
Text: as §1, §2

[3] = Determination of peptide hydrophobicity with RP-HPLC (adjusted retention time); format: physicochemical; conditions: RP-HPLC C18, linear 10–55% acetonitrile over 60 min, 0.1% TFA, 25.0 °C, UV 214 nm, triplicate; for Adjusted retention time: Table 2, nC = carbon atoms in fatty acid chain; for tR’: Table 3, adjusted retention time as hydrophobicity
Protocol: To determine peptide hydrophobicity, the Waters Alliance e2695 system with a Waters 2998 PDA Detector (software-Empower®3) was used. All analyses were carried out on a Phenomenex Luna C18(2) column (3.0 × 100 mm, 5 µm particle size, 100 Å pore size). The peptides were dissolved in water (0.1% TFA, v/v) to obtain a concentration of 1 g/L. UV detection at 214 nm was used, and aliquots (10 µL) were eluted with a linear 10–55% acetonitrile gradient in deionized water over 60 min at 25.0 ± 0.1 °C. The mobile phase flow rate was 0.5 mL/min. Both eluents contained 0.1% (v/v) of TFA. Each peptide sample was analyzed in triplicate.

K. aerogenes ATCC 13048 = format: cell-based, Klebsiella aerogenes; conditions: ATCC 13048, 18 h
Text: as §1, §2

[4] = system: human red blood cells (hRBCs); format: cell-based; conditions: red cells of human, 1 h
Protocol: The hemolysis assay was performed as described earlier according to the method of Avrahami and Shai. Fresh human red blood cells (hRBCs) with anticoagulant (EDTA) were rinsed three times with a PBS (Merck, Darmstadt, Germany) by centrifugation at 800× g for 10 min and resuspended in PBS. Lipopeptides were serially diluted on 96-well microtiter polystyrene plate and hRBCs were added to reach final volume of 100 µL. Peptide concentration ranged between 0.5 and 256 µg/mL and final hRBCs concentration was 4% (v/v). Controls for zero hemolysis (blank) and 100% hemolysis consisted of hRBCs suspended in PBS and 1% of Triton-X 100 (Merck, Darmstadt, Germany), respectively. The plate was incubated for 1 h at 37 °C and then centrifuged (800× g, 10 min, 4 °C). Subsequently, supernatant was […] to new microtiter plates and absorbance at 540 nm were measured. All experiments were conducted in triplicate. Protocol of the study received approval from the local Bioethics Committee at the Medical University of Gdańsk (NKBBN/262/2019).

[5] = system: K. pneumoniae ATCC 700603; format: cell-based, Klebsiella pneumoniae; conditions: ATCC 700603, 18 h
Text: as §1, §2

P. aeruginosa ATCC 9027 = format: cell-based, Pseudomonas aeruginosa; conditions: ATCC 9027, 18 h
Text: as §1, §2

| SMILES | MIC CA (C. albicans ATCC 10231) | MIC S [1] [µg/mL] | MIC SA (S. aureus ATCC 25923) [µg/mL] | MIC A [2] [µg/mL] | MIC E1 (E. faecium ATCC 700221) [µg/mL] | Adjusted retention time [3] [min] | tR’ [3] [min] | MIC E2 (K. aerogenes ATCC 13048) | HC50 [4] | MIC K [5] [µg/mL] | MIC PA (P. aeruginosa ATCC 9027) [µg/mL] |
| --- | --- | --- | --- | --- | --- | --- | --- | --- | --- | --- | --- |
| CCCCCCCCCCCCCC(=O)N[C@H](C(=O)N[C@@H](CCCNC(=N)N)C(=O)N[C@@H](CCCNC(=N)N)C(N)=O)[C@@H](C)CC [compound 38, C14-IRR-NH2] (HELM PEPTIDE1{[CCCCCCCCCCCCCC(=O)[*:2]].I.R.R.[am]}$$$$V2.0) | 4 µg/mL (≈ 6.13 µM) | 4 (≈ 6.13 µM) | 4 (≈ 6.13 µM) | 64 (≈ 98 µM) | 4 (≈ 6.13 µM) | 45.650 | 45.65 | 64 µg/mL (≈ 98 µM) | 78.92 (±4.38) µg/mL | 64 (≈ 98 µM) | 4 (≈ 6.13 µM) |
| CCCCCCCCCCCCCC(=O)N[C@@H](CCCCN)C(=O)N[C@@H](CCCNC(=N)N)C(=O)N[C@@H](CCCNC(=N)N)C(N)=O [compound 42, C14-KRR-NH2] (HELM PEPTIDE1{[CCCCCCCCCCCCCC(=O)[*:2]].K.R.R.[am]}$$$$V2.0) | 32 µg/mL (≈ 47.9 µM) | 8 (≈ 12 µM) | 8 (≈ 12 µM) | 64 (≈ 95.8 µM) | 8 (≈ 12 µM) | – | 35.66 | 64 µg/mL (≈ 95.8 µM) | 212.08 (±6.12) µg/mL | 128 (≈ 192 µM) | 64 (≈ 95.8 µM) |
| CCCCCCCCCCCC(=O)N[C@@H](CC(C)C)C(=O)N[C@@H](CCCNC(=N)N)C(=O)N[C@@H](CCCNC(=N)N)C(N)=O [compound 45, C12-LRR-NH2] (HELM PEPTIDE1{[CCCCCCCCCCCC(=O)[*:2]].L.R.R.[am]}$$$$V2.0) | 16 µg/mL (≈ 25.6 µM) | 16 (≈ 25.6 µM) | 8 (≈ 12.8 µM) | 64 (≈ 102 µM) | 16 (≈ 25.6 µM) | 39.821 | 39.82 | 256 µg/mL (≈ 410 µM) | 112.81 (±1.39) µg/mL | 256 (≈ 410 µM) | 16 (≈ 25.6 µM) |
| CCCCCCCCCCCCCC(=O)N[C@@H](CC(C)C)C(=O)N[C@@H](CCCNC(=N)N)C(=O)N[C@@H](CCCNC(=N)N)C(N)=O [compound 46, C14-LRR-NH2] (HELM PEPTIDE1{[CCCCCCCCCCCCCC(=O)[*:2]].L.R.R.[am]}$$$$V2.0) | 4 µg/mL (≈ 6.13 µM) | 16 (≈ 24.5 µM) | 4 (≈ 6.13 µM) | 64 (≈ 98 µM) | 8 (≈ 12.3 µM) | 46.441 | 46.44 | 128 µg/mL (≈ 196 µM) | 29.50 (±1.05) µg/mL | 128 (≈ 196 µM) | 4 (≈ 6.13 µM) |

Now from value to compound:

| MIC CA (C. albicans ATCC 10231) | MIC S [1] [µg/mL] | MIC SA (S. aureus ATCC 25923) [µg/mL] | MIC A [2] [µg/mL] | MIC E1 (E. faecium ATCC 700221) [µg/mL] | Adjusted retention time [3] [min] | tR’ [3] [min] | MIC E2 (K. aerogenes ATCC 13048) | HC50 [4] | MIC K [5] [µg/mL] | MIC PA (P. aeruginosa ATCC 9027) [µg/mL] | SMILES |
| --- | --- | --- | --- | --- | --- | --- | --- | --- | --- | --- | --- |
| 32 µg/mL (≈ 49.8 µM) | 16 (≈ 24.9 µM) | 8 (≈ 12.4 µM) | 64 (≈ 99.5 µM) | 16 (≈ 24.9 µM) | – | 37.95 | 256 µg/mL (≈ 398 µM) | 206.50 (±9.14) µg/mL | 256 (≈ 398 µM) | 32 (≈ 49.8 µM) | CCCCCCCCCCCC(=O)N[C@@H](CCSC)C(=O)N[C@@H](CCCNC(=N)N)C(=O)N[C@@H](CCCNC(=N)N)C(N)=O [compound 49, C12-MRR-NH2] (HELM PEPTIDE1{[CCCCCCCCCCCC(=O)[*:2]].M.R.R.[am]}$$$$V2.0) |
| 4 µg/mL (≈ 5.96 µM) | 8 (≈ 11.9 µM) | 4 (≈ 5.96 µM) | 32 (≈ 47.7 µM) | 8 (≈ 11.9 µM) | – | 44.69 | 128 µg/mL (≈ 191 µM) | 35.11 (±0.90) µg/mL | 128 (≈ 191 µM) | 8 (≈ 11.9 µM) | CCCCCCCCCCCCCC(=O)N[C@@H](CCSC)C(=O)N[C@@H](CCCNC(=N)N)C(=O)N[C@@H](CCCNC(=N)N)C(N)=O [compound 50, C14-MRR-NH2] (HELM PEPTIDE1{[CCCCCCCCCCCCCC(=O)[*:2]].M.R.R.[am]}$$$$V2.0) |
| 32 µg/mL (≈ 46.6 µM) | 16 (≈ 23.3 µM) | 32 (≈ 46.6 µM) | 64 (≈ 93.2 µM) | 16 (≈ 23.3 µM) | – | 39.18 | >256 (-) µg/mL | 116.28 (±1.77) µg/mL | 256 (≈ 373 µM) | 64 (≈ 93.2 µM) | CCCCCCCCCCCCCC(=O)N[C@@H](CC[S+](C)[O-])C(=O)N[C@@H](CCCNC(=N)N)C(=O)N[C@@H](CCCNC(=N)N)C(N)=O (stereo partly shown) [compound 54, C14-M(O)RR-NH2] (HELM PEPTIDE1{[CCCCCCCCCCCCCC(=O)[*:2]].[CS(=O)CC[C@H](N[*:1])C(=O)[*:2]].R.R.[am]}$$$$V2.0) |
| 16 µg/mL (≈ 22.8 µM) | 16 (≈ 22.8 µM) | 16 (≈ 22.8 µM) | 32 (≈ 45.5 µM) | 8 (≈ 11.4 µM) | – | 41.17 | 256 µg/mL (≈ 364 µM) | 70.11 (±2.93) µg/mL | 256 (≈ 364 µM) | 32 (≈ 45.5 µM) | CCCCCCCCCCCCCC(=O)N[C@@H](CCS(C)(=O)=O)C(=O)N[C@@H](CCCNC(=N)N)C(=O)N[C@@H](CCCNC(=N)N)C(N)=O [compound 58, C14-M(O2)RR-NH2] (HELM PEPTIDE1{[CCCCCCCCCCCCCC(=O)[*:2]].[CS(=O)(=O)CC[C@H](N[*:1])C(=O)[*:2]].R.R.[am]}$$$$V2.0) |
| 16 µg/mL (≈ 24.5 µM) | 16 (≈ 24.5 µM) | 16 (≈ 24.5 µM) | 32 (≈ 48.9 µM) | 8 (≈ 12.2 µM) | – | 38.71 | 128 µg/mL (≈ 196 µM) | 64.37 (±2.23) µg/mL | 128 (≈ 196 µM) | 32 (≈ 48.9 µM) | CCCCCCCCCCCCCC(=O)N[C@@H](CC(N)=O)C(=O)N[C@@H](CCCNC(=N)N)C(=O)N[C@@H](CCCNC(=N)N)C(N)=O [compound 62, C14-NRR-NH2] (HELM PEPTIDE1{[CCCCCCCCCCCCCC(=O)[*:2]].N.R.R.[am]}$$$$V2.0) |
| 16 (>16) µg/mL | 8 (≈ 12.8 µM) | 8 (≈ 12.8 µM) | 32 (≈ 51.2 µM) | 8 (≈ 12.8 µM) | 39.958 | – | 256 µg/mL (≈ 410 µM) | >256 µg/mL | 256 (≈ 410 µM) | 8 (≈ 12.8 µM) | CCCCCCCCCCCC(=O)N[C@@H](CCCC)C(=O)N[C@@H](CCCNC(=N)N)C(=O)N[C@@H](CCCNC(=N)N)C(N)=O [compound 65, C12-NleRR-NH2] (HELM PEPTIDE1{[CCCCCCCCCCCC(=O)[*:2]].[Nle].R.R.[am]}$$$$V2.0) |
